Patent US20240398844A1, “PHENYLCOUMARINS FOR TREATING INFLAMMATION” (Ohio State Innovation Foundation, priority 2021, published 2024)

Experiments:
PPAR-γ = target: T1, PPAR-γ (Homo sapiens, UniProt P37231); assay: PPAR-γ ELISA Assay in HeLa cells (in vitro PPAR-γ assay); format: cell-based; settings: 50 μg/mL; for activation at 50 µg/mL: Table 2; for % Activation PPAR-γ: Table 4
T1 construct: endogenous in cells; host or cells: HeLa
T1 sequence (P37231 1-505): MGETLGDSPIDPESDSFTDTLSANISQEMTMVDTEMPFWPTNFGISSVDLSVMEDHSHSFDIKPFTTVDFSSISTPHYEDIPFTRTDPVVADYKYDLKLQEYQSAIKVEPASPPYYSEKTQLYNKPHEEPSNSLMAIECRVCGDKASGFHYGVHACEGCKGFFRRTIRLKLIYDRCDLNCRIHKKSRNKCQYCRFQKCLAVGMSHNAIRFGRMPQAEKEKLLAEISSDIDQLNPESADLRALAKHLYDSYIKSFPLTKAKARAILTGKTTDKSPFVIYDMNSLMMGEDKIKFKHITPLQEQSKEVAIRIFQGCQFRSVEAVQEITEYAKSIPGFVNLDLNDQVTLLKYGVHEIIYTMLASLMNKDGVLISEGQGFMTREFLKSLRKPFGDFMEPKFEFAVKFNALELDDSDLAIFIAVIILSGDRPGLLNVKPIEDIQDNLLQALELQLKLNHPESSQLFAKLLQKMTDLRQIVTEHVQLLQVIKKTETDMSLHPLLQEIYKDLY
Experimental: In addition to the Western blot, the diverse library was also screened in the in vitro PPAR-γ assay. […] The compounds were tested at 50 μg/mL according to the protocol detailed in section 3.2.3.

HbA1C = assay: Diabetic zebrafish Western blot, HbA1C expression; format: in vivo; settings: diabetic zebrafish, 10 μM, library screen, FIG. 2 / FIG. 11
Experimental: (§1) Alloxan-induced diabetic zebrafish were treated with compounds for immunoblot to validate the newly developed animal model, determine the antidiabetic potential of natural product leads, evaluate glucose metabolism, and discover possible mechanisms of action.
(§2) At 72 hpf, naturally dechorionated zebrafish were sorted into a 24-well microplate with 10 fish per well. Type 2 diabetes was induced with the diabetogenic agent alloxan at a dose of 0.5 mg/mL in system water for 3 hours. […] After 3 hours of treatment with natural product samples, 10 mg/mL D-glucose was administered in system water for 30 minutes, followed by 1 hour in fresh system water to metabolize the glucose and natural product leads. Upon completion of the 4-phase treatment cycle, zebrafish treatment groups were snap frozen into individual microcentrifuge tubes on dry ice, stored overnight at −80° C., thawed, homogenized with 2 μL PBS per animal, and centrifuged at 4° C. for 1 hour at 17,000 rpm. Protein content of homogenate supernatant was determined using the Pierce BCA Protein Assay kit (Pierce Biotechnology) and bovine serum albumin (BSA) standard curve. Absorbance of protein solutions from zebrafish homogenates and serial dilutions of the BSA standard were measured at 544 nm, using a FLUOstar Optima plate reader (BMG Labtechnologies GmbH, Inc.). Homogenates were analyzed by Western blot. Equal amounts of protein (20 μg) were combined with 4× lithium dodecyl sulphate (LDS) loading buffer (NuPAGE, Life Technologies, Carlsbad, CA, USA), brought to volume (15 μL) with PBS, and heated to 95° C. for 5 minutes. Proteins were resolved using NuPAGE Bis-Tris 4-12% gradient sodium dodecyl sulfate polyacrylamide gel electrophoresis (SDS-PAGE) gels together with SeeBlue Plus2 Pre-Stained Standard Ladder (Life Technologies).
(§3) Electrophoresis was performed using NuPAGE MES SDS Running Buffer and XCell SureLock Mini-Cell Electrophoresis System (Life Technologies). Separated proteins were transferred from the gel to a polyvinylidene fluoride (PVDF) membrane using tris buffered saline with Tween-20 (TBST) buffer. The blots were blocked in 3% BSA in TBST and subsequently probed using primary antibodies (1:1000 in 1% BSA in TBST) against each target overnight (Table 1). The secondary, horseradish peroxidase (HRP) conjugated antibodies (1:2000) were obtained from Santa Cruz Biotechnology Inc., (Santa Cruz, CA, USA). Conjugated antibodies were detected using SuperSignal West Femto chemiluminescent substrate from Pierce Biotechnology. Western blots were visualized, and images captured using a luminometer and LumiAnalyst 3.0 software (Boehringer-Mannheim, Mannheim, Germany). Band density was quantified for proteins of interest using ImageJ Gel Analysis.
(§4) In the case of duplicate blots, the band density results were expressed in bar graphs as the mean±standard error of the mean (SEM) of two independent experiments. Due to the labor- and time-intensive aspect of Western blot analysis with multiple target proteins, a maximum of two independent immunoblot experiments were performed per compared sample set. […] Additionally, treatment groups were also evaluated versus the diabetic, untreated control group for significance by Student's f-test and indicated in the bar graphs with p values represented by *p<0.05, **p<0.01, and ***p<0.001. […]

NFκB p65 = assay: Diabetic zebrafish Western blot, NFκB expression; format: in vivo; settings: diabetic zebrafish, 10 μM, FIG. 5
Experimental: as §1, §2, §3, §4

GLUT-4 = assay: Diabetic zebrafish Western blot, GLUT-4 expression; format: in vivo; settings: 10 μM, FIG. 5
Experimental: as §1
At 72 hpf, naturally dechorionated zebrafish were sorted into a 24-well microplate with 10 fish per well. Type 2 diabetes was induced with the diabetogenic agent alloxan at a dose of 0.5 mg/mL in system water for 3 hours. The incubation solution was changed to 0.01% DMSO in system water with compounds at concentrations of 20 μg/mL or […], respectively. After 3 hours of treatment with natural product samples, 10 mg/mL D-glucose was administered in system water for 30 minutes, followed by 1 hour in fresh system water to metabolize the glucose and natural product leads. Upon completion of the 4-phase treatment cycle, zebrafish treatment groups were snap frozen into individual microcentrifuge tubes on dry ice, stored overnight at −80° C., thawed, homogenized with 2 μL PBS per animal, and centrifuged at 4° C. for 1 hour at 17,000 rpm. Protein content of homogenate supernatant was determined using the Pierce BCA Protein Assay kit (Pierce Biotechnology) and bovine serum albumin (BSA) standard curve. Absorbance of protein solutions from zebrafish homogenates and serial dilutions of the BSA standard were measured at 544 nm, using a FLUOstar Optima plate reader (BMG Labtechnologies GmbH, Inc.). Homogenates were analyzed by Western blot. Equal amounts of protein (20 μg) were combined with 4× lithium dodecyl sulphate (LDS) loading buffer (NuPAGE, Life Technologies, Carlsbad, CA, USA), brought to volume (15 μL) with PBS, and heated to 95° C. for 5 minutes. […]
Electrophoresis was performed using NuPAGE MES SDS Running Buffer and XCell SureLock Mini-Cell Electrophoresis System (Life Technologies). […] Conjugated antibodies were detected using SuperSignal West Femto chemiluminescent substrate from Pierce Biotechnology. […] Band density was quantified for proteins of interest using ImageJ Gel Analysis. […]

PEPCK = assay: Diabetic zebrafish Western blot, PEPCK expression; format: in vivo; settings: 10 μM, library screen, FIG. 4 / FIG. 11
Experimental: as §1
At 72 hpf, naturally dechorionated zebrafish were sorted into a 24-well microplate with 10 fish per well. Type 2 diabetes was induced with the diabetogenic agent alloxan at a dose of 0.5 mg/mL in system water for 3 hours. The incubation solution was changed to 0.01% DMSO in system water with compounds at concentrations of 20 μg/mL or […], respectively. After 3 hours of treatment with natural product samples, 10 mg/mL D-glucose was administered in system water for 30 minutes, followed by 1 hour in fresh system water to metabolize the glucose and natural product leads. Upon completion of the 4-phase treatment cycle, zebrafish treatment groups were snap frozen into individual microcentrifuge tubes on dry ice, stored overnight at −80° C., thawed, homogenized with 2 μL PBS per animal, and centrifuged at 4° C. for 1 hour at 17,000 rpm. Protein content of homogenate supernatant was determined using the Pierce BCA Protein Assay kit (Pierce Biotechnology) and bovine serum albumin (BSA) standard curve. Absorbance of protein solutions from zebrafish homogenates and serial dilutions of the BSA standard were measured at 544 nm, using a FLUOstar Optima plate reader (BMG Labtechnologies GmbH, Inc.). Homogenates were analyzed by Western blot. Equal amounts of protein (20 μg) were combined with 4× lithium dodecyl sulphate (LDS) loading buffer (NuPAGE, Life Technologies, Carlsbad, CA, USA), brought to volume (15 μL) with PBS, and heated to 95° C. for 5 minutes. Proteins were resolved using NuPAGE Bis-Tris 4-12% gradient sodium dodecyl sulfate polyacrylamide gel electrophoresis (SDS-PAGE) gels together with SeeBlue Plus2 Pre-Stained Standard Ladder (Life Technologies).
as §3, with “Western blots were visualized, and images captured using a luminometer and LumiAnalyst 3.0 software (Boehringer-Mannheim, Mannheim, Germany).” left out, “Analysis. […]” for “Analysis.”

Q: Which activation at 50 µg/mL (PPAR-γ) does the source give for `COc1ccc(-c2cc(=O)c3c(O)cc(O)cc3o2)cc1` [Compound 17] here?
A: Its activation at 50 µg/mL is 0%.

Q: Which activation at 50 µg/mL (PPAR-γ) does the source give for `C=C1CC[C@H]2C(=C)CC[C@H]3C(=C)C(=O)O[C@@H]3[C@@H]12` [Compound 29] here?
A: The activation at 50 µg/mL was 0%.

Q: For `O=c1cc(-c2ccc(O)cc2)oc2c([C@H]3OC(CO)[C@@H](O)[C@H](O)C3O)c(O)cc(O)c12` (stereo partly drawn) [Compound 21], which “HbA1C expression (Western blot band density)” value (HbA1C) is on record?
A: Its value is “lowest glycated hemoglobin levels”.

Q: And the activation at 50 µg/mL (PPAR-γ)?
A: Its activation at 50 µg/mL is 57%.

Q: Which activation at 50 µg/mL (PPAR-γ) does the source give for `C[C@]12C[C@@H](O)CC3(CCC4[C@@](C)(CCC[C@@]4(C)C(=O)O[C@@H]4OC(CO)[C@@H](O[C@@H]5OC[C@H](O)[C@H](O)C5O)[C@H](O)C4O)C3C(=O)O1)C2` (stereo partly drawn) [Compound 28] here?
A: Its activation at 50 µg/mL is 0%.

Q: Which “HbA1C expression (Western blot band density)” value (HbA1C) does the source give for `COc1cc(O)c2c(c1)OC(c1ccc(O)cc1)CC2=O` (stereo not drawn) [Compound 19] here?
A: The value was “lowest glycated hemoglobin levels”.

Q: What about the activation at 50 µg/mL (PPAR-γ) of the same molecule?
A: The activation at 50 µg/mL was 77%.

Q: For `COc1cc(O[C@@H]2OC(CO)[C@H](O)[C@H](O)C2O)c2c(-c3ccc(O)c(O)c3)cc(=O)oc2c1` (stereo partly drawn) [Compound 22], which “NFκB expression (Western blot)” value (NFκB p65) is on record?
A: The value was “excellent inhibition of NFκB expression”.

Q: And the “GLUT-4 expression (Western blot)” value (GLUT-4)?
A: The value was “strong GLUT-4 expression”.

Q: What about the activation at 50 µg/mL (PPAR-γ) of the same molecule?
A: The activation at 50 µg/mL was 21%.

Q: And the “% Activation PPAR-γ” value (PPAR-γ)?
A: Its value is 21%.

Q: And the “PEPCK expression (Western blot band density)” value (PEPCK)?
A: Its value is 31>rosiglitazone>22>23 and greatest PEPCK expression.

Q: Which activation at 50 µg/mL (PPAR-γ) does the source give for `Oc1cccc(CCc2ccc3c(c2)OCO3)c1` [Compound 16] here?
A: The activation at 50 µg/mL was 0%.

Q: Which activation at 50 µg/mL (PPAR-γ) does the source give for `C/C=C/C1=CC=C/C(=C2/C(=O)CCNC2=O)O1` [Compound 30] here?
A: The activation at 50 µg/mL was 37%.

Q: For `COc1cc(O[C@@H]2OC(CO)[C@@H](O)[C@H](O)C2O)c2c(-c3ccc(O)c(O)c3)cc(=O)oc2c1` (stereo partly drawn) [Compound 23], which “NFκB expression (Western blot)” value (NFκB p65) is on record?
A: Its value is “excellent inhibition of NFκB expression”.

Q: What about the “GLUT-4 expression (Western blot)” value (GLUT-4) of the same molecule?
A: The value was “strong GLUT-4 expression”.

Q: And the activation at 50 µg/mL (PPAR-γ)?
A: Its activation at 50 µg/mL is 145%.

Q: What about the “% Activation PPAR-γ” value (PPAR-γ) of the same molecule?
A: Its value is 145%.

Q: What about the “PPAR-γ activity in the in vitro assay (in words)” value (PPAR-γ; versus positive control rosiglitazone) of the same molecule?
A: Its value is “top performers”.

Q: What about the “PEPCK expression (Western blot band density)” value (PEPCK) of the same molecule?
A: The value was 31>rosiglitazone>22>23.

Q: With `CC(C)(O)CCC(=O)[C@](C)(O)[C@H]1[C@H](O)C[C@@]2(C)C3CC=C4[C@@H](CC(O)[C@H](O[C@@H]5OC(CO)[C@@H](O)[C@H](O)C5O)C4(C)C)C3C(=O)C[C@@]12C` (stereo partly drawn) [Compound 27] as the molecule, how does the activation at 50 µg/mL (PPAR-γ) read?
A: The activation at 50 µg/mL was 65%.
